The assay concerns the target PIK3CB;PIK3CG;PIK3CD;PIK3CA (human) (UniProt P48736). Description: Inhibition of PIK3CA/PIK3CB/PIK3CD/PIK3CG Kinase Activity.
By IC50 is commonly meant the concentration needed to halve the response being measured. In turn, `COc1cc(CN(C)C)cc(Nc2nc3ccccc3nc2NS(=O)(=O)c2cn(C)cn2)c1` gave an IC50 of 1100 nM. This lies in the single-digit micromolar range.

Compound `COc1cc(Nc2nc3ccccc3nc2NS(=O)(=O)CCCS(C)(=O)=O)cc(C(=O)NCCO)c1` yielded an IC50 of 350 nM.

`COc1ccc(CN2CCOCC2)c(Nc2nc3ccccc3nc2NS(=O)(=O)c2cccnc2)c1`: the IC50 stood at 72 nM.

As for `CCS(=O)(=O)Nc1nc2ccccc2nc1Nc1cc(OC)ccc1CCO`, the IC50 was 60 nM.

The compound `COc1ccc(CC2CCSCC2)c(Nc2nc3ccccc3nc2NS(=O)(=O)c2cn(C)cn2)c1` showed an IC50 of 100 nM.

For the compound `COc1ccc(CC2CCSCC2)c(Nc2nc3ccccc3nc2NS(=O)(=O)c2ccc(CN(C)C)cc2)c1`, the IC50 came to 35 nM. Against the preceding compound, the IC50 is about 2.9-fold lower.

As for `CCS(=O)(=O)Nc1nc2ccccc2nc1Nc1cc(OC)ccc1CCCO`, the IC50 was determined as 59 nM.

Turning to `COc1ccc(CC2CCC(O)CC2)c(Nc2nc3ccccc3nc2NS(=O)(=O)c2ccc(CN(C)C)cc2)c1` (configuration not stated), the IC50 worked out at 26 nM. Against the preceding compound, the IC50 is about 2.3-fold lower.

As to `COc1ccc(CC2CCN(C(C)=O)CC2)c(Nc2nc3ccccc3nc2NS(C)(=O)=O)c1`, the IC50 is 170 nM. Against the preceding compound, the IC50 is about 6.5-fold higher.

On to `COc1cc(Nc2nc3ccccc3nc2NS(=O)(=O)c2cccnc2)cc(C(=O)N2CCOCC2)c1`, for which the IC50 amounted to 3100 nM.

`COc1ccc(CC2CCC(O)CC2)c(Nc2nc3ccccc3nc2NS(=O)(=O)c2cn(C)cn2)c1` (configuration not stated) came in with an IC50 of 18 nM.

Compound `COc1ccc(CCCO)c(Nc2nc3ccccc3nc2NS(=O)(=O)c2cn(C)c(CO)n2)c1` yielded an IC50 of 84 nM. Compared with the last compound, the IC50 is about 4.7-fold higher.

On to `COc1ccc(C(=O)O)c(Nc2nc3ccccc3nc2NS(=O)(=O)c2cccnc2)c1`, for which the IC50 stood at 4680 nM.

Take `COc1ccc(CCS(C)(=O)=O)c(Nc2nc3ccccc3nc2NS(=O)(=O)c2cn(C)cn2)c1`: the IC50 is 84 nM. This IC50 is about 56-fold lower than that of the compound before.

In turn, `COc1ccc(CCO)c(Nc2nc3ccccc3nc2NS(=O)(=O)C2CCCCC2)c1` showed an IC50 of 57 nM.

Consider `COc1ccc(CCCO)c(Nc2nc3ccccc3nc2NS(=O)(=O)c2c(C)noc2C)c1`, for which the IC50 was determined as 130 nM.

In turn, `CC#N.COc1ccc(CCCO)c(Nc2nc3ccccc3nc2NS(=O)(=O)c2cn(C)cn2)c1` registered an IC50 of 21 nM.

With `COC(=O)c1ccc(OC)cc1Nc1nc2ccccc2nc1NS(C)(=O)=O`, the IC50 worked out at 1650 nM.

`COc1ccc(C(C)C)c(Nc2nc3ccccc3nc2NS(=O)(=O)c2cn(C)cn2)c1` returned an IC50 of 200 nM.

`COc1ccc(CO)c(Nc2nc3ccccc3nc2NS(=O)(=O)c2cn(C)cn2)c1`: the IC50 came to 470 nM.

In turn, `COc1ccc(CCOC(=O)[C@@H](NC(=O)OCC2c3ccccc3-c3ccccc32)C(C)C)c(Nc2nc3ccccc3nc2NS(=O)(=O)c2cn(C)cn2)c1` gave an IC50 of 1840 nM.

`COc1ccc(CC2CCN(C)CC2)c(Nc2nc3ccccc3nc2NS(=O)(=O)c2cn(C)cn2)c1` came in with an IC50 of 43 nM. This IC50 is about 43-fold lower than that of the compound before.

Values taken from the Kinase Knowledgebase extract (Sharma et al. 2016).
